The values below come from patent publication US20260217708A1, “FUSED BENZAZEPINE DERIVATIVES FOR USE IN THE TREATMENT OF CANCER AND EPILEPSY” (UCB BIOPHARMA SRL, priority 2023, published 2026).

The target in assay [1] is T1, system Xc^− (Homo sapiens, UniProt Q9UPY5).
T1 sequence (Q9UPY5 1-501): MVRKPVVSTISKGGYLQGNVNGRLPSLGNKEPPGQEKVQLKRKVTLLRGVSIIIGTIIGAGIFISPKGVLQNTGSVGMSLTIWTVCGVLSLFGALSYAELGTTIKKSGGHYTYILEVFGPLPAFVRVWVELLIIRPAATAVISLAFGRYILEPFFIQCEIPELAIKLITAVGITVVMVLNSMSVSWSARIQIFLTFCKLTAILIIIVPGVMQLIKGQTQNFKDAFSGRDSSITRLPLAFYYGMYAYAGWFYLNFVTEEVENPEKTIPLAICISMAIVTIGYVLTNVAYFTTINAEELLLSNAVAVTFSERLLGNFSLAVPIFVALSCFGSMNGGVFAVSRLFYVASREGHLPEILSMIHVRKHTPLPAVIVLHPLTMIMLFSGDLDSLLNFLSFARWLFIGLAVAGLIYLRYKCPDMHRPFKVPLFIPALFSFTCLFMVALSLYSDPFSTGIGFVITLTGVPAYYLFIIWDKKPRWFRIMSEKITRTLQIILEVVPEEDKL
T1 sequence (P08195 1-529 partner): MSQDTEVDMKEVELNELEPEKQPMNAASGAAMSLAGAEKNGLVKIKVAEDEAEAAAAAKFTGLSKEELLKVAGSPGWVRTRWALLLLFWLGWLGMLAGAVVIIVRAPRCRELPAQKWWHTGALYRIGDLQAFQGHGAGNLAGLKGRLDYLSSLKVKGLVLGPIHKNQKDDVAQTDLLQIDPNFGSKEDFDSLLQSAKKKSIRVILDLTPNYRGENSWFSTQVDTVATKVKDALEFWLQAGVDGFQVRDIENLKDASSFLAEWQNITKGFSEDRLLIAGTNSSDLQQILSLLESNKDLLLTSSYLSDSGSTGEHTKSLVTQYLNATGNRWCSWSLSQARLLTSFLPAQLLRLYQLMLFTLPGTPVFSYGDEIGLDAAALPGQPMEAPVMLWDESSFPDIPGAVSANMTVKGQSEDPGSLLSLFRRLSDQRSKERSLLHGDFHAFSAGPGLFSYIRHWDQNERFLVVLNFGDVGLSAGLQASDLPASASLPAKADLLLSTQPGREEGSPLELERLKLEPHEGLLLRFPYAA
The assay is described as follows: Cystine-induced glutamate release assay. The class given is cell-based. Set-up: endogenous in cells; host or cells: H4 cells. The following applies: H4 cells, sodium-free HEPES buffer, 50 μM L-Cystine, 2 hours, Amplex Red glutamate readout; for IC50: read-out: pIC50 Cystine-induced glutamate release assay (converted). The text has this:
(§1) The effect of compounds of Formula (I) on the system Xc^− functionality was examined in two independent cell assays: (i) measurement of cystine-induced glutamate release; and (ii) measurement of [^14C]L-Cystine uptake.
(§2) As described above, System Xc^−, also known as the cystine/glutamate antiporter, is an amino acid transporter that mediates the extrusion of intracellular L-glutamate outside the cell and the uptake of extracellular L-cystine into the cell.
(§3) By measuring respectively, the concentration of glutamate released outside the cell and the L-cystine uptaken in the cell, with increasing concentrations of compounds of formula (I) according to the present invention, the efficacy of said compounds to inhibit the System Xc^− function can be evaluated.
(§4) The efficacy of the compounds to inhibit system Xc^− is represented by measuring the IC50 which corresponds to the concentration of compound necessary to inhibit 50% of the signals from the two control groups; DMSO 1% and Erastin 50 μM in the respective assays. pIC50 values correspond to −log of the IC50 in Molar.
Measurement of cystine-induced glutamate release indicates levels of glutamate (outside of the cell) that are dependent on system Xc^− antiporter function. Upon the addition of L-Cystine to H4 cells, intracellular glutamate is counter-transported and exported in the supernatant.
In this assay, the medium is devoid of sodium to prevent the transport of glutamate by sodium-dependent excitatory amino acid transporters (EAATs). H4 cells were plated on 384-well culture plate at 1×10^4 cells/well in Dulbecco's Modified Eagle Medium (DMEM) with L-glutamine, penicillin/streptomycin and 10% fetal bovine serum (all from ThermoFisher Scientific) and incubated in a humidified CO2 incubator at 37° C. After 2 days, cells were washed 4 times with prewarmed sodium-free HEPES buffer (contents in mM: HEPES 10, KCl 5.4, CaCl2 2.5, MgCl2 1, KH2PO4 0.4, D-Glucose 5, Choline chloride 140), pH 7.4. Glutamate release was induced by addition of 50 μM of L-Cystine (Sigma-Aldrich), together with a test compound of Formula (I) at 1% final DMSO concentration. After 2 hours of incubation in the culture incubator, supernatants were transferred to a low-binding polypropylene 384-well plate to determine L-glutamate concentration using Amplex™ Red Glutamic Acid Assay Kit (ThermoFisher Scientific). Briefly, 10 μL of Amplex™ Red working solution was added to 10 μL of the supernatant, then the mixture was incubated for 30 min at 37° C. Fluorescence intensity was measured by EnVision microplate reader (PerkinElmer).

Assay [2] addresses T1, system Xc^−. The assay is described as follows: [^14C]L-Cystine uptake assay. The class given is cell-based. Set-up: endogenous in cells; host or cells: H4 cells. The note with it: H4 cells, sodium-free HEPES buffer, 0.5 μM L-[14C]Cystine and 4.5 μM L-Cystine, 1 hour at 37° C.; for IC50: read-out: pIC50 [^14C] L-Cystine uptake assay (converted).
From the text: as §1, §2, §3, §4
In this assay, the medium is devoid of sodium to prevent the transport of glutamate by sodium-dependent excitatory amino acid transporters (EAATs). H4 cells were plated on a 96-well CytoStar-T scintillating microplate (PerkinElmer) at 5×10^4 cells/well in the medium described above. After 1 day, cells were washed one time with the sodium-free HEPES buffer and preincubated with test compounds of Formula (I) (1% final DMSO) for 15 min. Uptake was initiated by adding 0.5 μM L-[1,2, 1′,2′-^14C]Cystine (0.02 mCi/mL, PerkinElmer, Waltham, US) and 4.5 μM L-Cystine (Sigma-Aldrich). After 1 hour at 37° C., plates were counted in a MicroBeta^2 microplate counter (PerkinElmer).

For the compound `Cc1cc2c(c(Cl)n1)-c1ccccc1CC(=O)N2CC(=O)Nc1ccc(C(F)(F)F)cc1` (single isomer, unassigned) [#189, Atropisomer aR or aS of 2-(1-chloro-3-methyl-6-oxo-7H-pyrido[4,3-d][3]benzazepin-5-yl)-N-[4-(trifluoromethyl)phenyl]acetamide], the “pIC50 Cystine-induced glutamate release assay” value against system Xc^− [1] is recorded as “D (plC50 > about 7.80)”. The “pIC50 [^14C] L-Cystine uptake assay” value on system Xc^− [2] is given as “D (plC50 > about 7.80)”.
For `Cc1cc2c(cn1)-c1cccnc1C(C)C(=O)N2CC(=O)Nc1ccc(Cl)c(F)c1` (single isomer, unassigned) [#251, N-(4-chloro-3-fluoro-phenyl)-2-[5,10-dimethyl-9-oxo-4,8,12-triazatricyclo[9.4.0.0^2,7]pentadeca-1(15),2,4,6,11,13-hexaen-8-yl]acetamide], the IC50 at system Xc^− [1] and at system Xc^− [2] was under 15.8 nM each time.
In the case of `CC1C(=O)N(CC(=O)Nc2ccc(Cl)c(F)c2)c2ccn(C)c(=O)c2-c2ccc(F)cc21` (single isomer, unassigned) [#364, N-(4-chloro-3-fluoro-phenyl)-2-[-9-fluoro-2,7-dimethyl-1,6-dioxo-7H-pyrido[4,3-d][3]benzazepin-5-yl]acetamide], the IC50 on system Xc^− [1] is 15.8 to 39.8 nM; at system Xc^− [2] it was under 15.8 nM.
With `O=C(CN1C(=O)Cc2cccnc2-c2cnc(Cl)cc21)Nc1ccc(Br)c(Cl)c1` [#19, N-(4-bromo-3-chloro-phenyl)-2-(13-chloro-9-oxo-3,10,14-triazatricyclo[9.4.0.0^2,7]pentadeca-1(11),2(7),3,5,12,14-hexaen-10-yl)acetamide], the IC50 at system Xc^− [1] and on system Xc^− [2] was 100 to 501 nM each time.
`Cc1cc2c(c(F)n1)-c1cccnc1[C@@H](C)C(=O)N2CC(=O)Nc1ccc(F)c(Cl)c1` [#241, N-(3-chloro-4-fluoro-phenyl)-2-[(10R)-3-fluoro-5,10-dimethyl-9-oxo-4,8,12-triazatricyclo[9.4.0.0^2,7]pentadeca-1(15),2,4,6,11,13-hexaen-8-yl]acetamide]: the IC50 on system Xc^− [1] was under 15.8 nM; at system Xc^− [2] it was 15.8 to 39.8 nM.
For the compound `Cc1cc2c(c(C#N)n1)-c1cccnc1CC(=O)N2CC(=O)Nc1ccc(C(F)(F)F)cc1` [#153, 2-(3-cyano-5-methyl-9-oxo-4,8,12-triazatricyclo[9.4.0.0^2,7]pentadeca-1(11),2(7),3,5,12,14-hexaen-8-yl)-N-[4-(trifluoromethyl)phenyl]acetamide], the IC50 at system Xc^− [1] and on system Xc^− [2] was 15.8 to 39.8 nM each time.
On to `Cc1cc2c(c(F)n1)-c1cccc(=O)n1CC(=O)N2CC(=O)Nc1ccc(C(F)(F)F)cc1` [#102, 2-(3-fluoro-5-methyl-9,12-dioxo-4,8,11-triazatricyclo[9.4.0.0^2,7]pentadeca-1(15),2(7),3,5,13-pentaen-8-yl)-N-[4-(trifluoromethyl)phenyl]acetamide], for which the values for the IC50 on system Xc^− [1] and at system Xc^− [2] were 100 to 501 nM and 39.8 to 100 nM, respectively.
For `Cc1cc2c(c(F)n1)-c1ccn(C)c(=O)c1C(C)C(=O)N2CC(=O)Nc1ccc(Cl)c(F)c1` (stereo not drawn) [#356, N-(4-chloro-3-fluoro-phenyl)-2-(3-fluoro-5,10,13-trimethyl-9,12-dioxo-4,8,13-triazatricyclo[9.4.0.0^2,7]pentadeca-1(11),2,4,6,14-pentaen-8-yl)acetamide] the same measures were 39.8 to 100 nM and 39.8 to 100 nM.
The like results for `Cc1nccc2c1-c1ccccc1CC(=O)N2CC(=O)Nc1ccc(C(F)(F)F)cc1` [#28, 2-(1-methyl-6-oxo-7H-pyrido[4,3-d] [3]benzazepin-5-yl)-N-[4-(trifluoro-methyl)phenyl] acetamide] were, in that order, 39.8 to 100 nM and 39.8 to 100 nM.
For `COC1C(=O)N(CC(=O)Nc2ccc(C(F)(F)F)cc2)c2cc(C)nc(Cl)c2-c2cccnc21` (stereo not drawn) [#159, 2-(3-chloro-10-methoxy-5-methyl-9-oxo-4,8,12-triazatricyclo[9.4.0.0^2,7]pentadeca-1(11),2(7),3,5,12,14-hexaen-8-yl)-N-[4-(trifluoromethyl)phenyl]acetamide], the figures for the IC50 on system Xc^− [1] and at system Xc^− [2] were 39.8 to 100 nM and 15.8 to 39.8 nM, respectively.
For `COc1nc(C)cc2c1-c1cccnc1C(C)C(=O)N2CC(=O)Nc1ccc(C(F)(F)F)cc1` (stereo not drawn) [#81, 2-(3-methoxy-5,10-dimethyl-9-oxo-4,8,12-triazatricyclo[9.4.0.0^2,7]pentadeca-1(11),2,4,6, 12,14-hexaen-8-yl)-N-[4-(trifluoromethyl)-phenyl]acetamide] the same measures were 15.8 to 39.8 nM and under 15.8 nM.
The like results for `CC1C(=O)N(CC(=O)Nc2ccc(Cl)c(F)c2)c2cc(C(F)F)ncc2-c2cc(F)cnc21` (single isomer, unassigned) [#348, N-(4-chloro-3-fluoro-phenyl)-2-[5-(difluoromethyl)-14-fluoro-10-methyl-9-oxo-4,8,12-triazatricyclo[9.4.0.0^2,7]pentadeca-1(15),2,4,6,11,13-hexaen-8-yl]acetamide] were, in that order, 15.8 to 39.8 nM and under 15.8 nM.
Turning to `COc1cc2c(c(OC)n1)-c1cccnc1CC(=O)N2CC(=O)Nc1ccc(C(F)(F)F)cc1` [#108, 2-(3,5-dimethoxy-9-oxo-4,8,12-triazatricyclo[9.4.0.0^2,7]pentadeca-1(11),2,4,6,12,14-hexaen-8-yl)-N-[4-(trifluoromethyl)phenyl]acetamide], the IC50 on system Xc^− [1] is 39.8 to 100 nM; on system Xc^− [2] it was under 15.8 nM.
For `CC1C(=O)N(CC(=O)Nc2ccc(C(F)F)cc2)c2cc(C3CC3C(F)(F)F)cc(F)c2-c2cccnc21` (stereo not drawn) [#346, N-[4-(difluoromethyl)phenyl]-2-[11-fluoro-5-methyl-6-oxo-9-[2-(trifluoromethyl)cyclopropyl]-5H-pyrido[2,3-d][1]benzazepin-7-yl]acetamide], the IC50 on system Xc^− [1] and at system Xc^− [2] was 39.8 to 100 nM in each case.
On to `Cc1cncc2c1-c1ccccc1CC(=O)N2CC(=O)Nc1ccc(C(F)(F)F)cc1` [#45, 2-(1-methyl-6-oxo-7H-pyrido[3,4-d][3]benzazepin-5-yl)-N-[4-(trifluoromethyl)phenyl]acetamide], for which the IC50 on system Xc^− [1] is 39.8 to 100 nM; at system Xc^− [2], 100 to 501 nM.
